Data published in patent US12642797B2, “Coated granule, solid dispersion, and preparation containing vortioxetine hydrobromide for oral taste masking” (Seasons Biotechnology (Taizhou) Co., Ltd., priority 2019, dated 2026).
Counter-ions that a name gives are not always drawn.

Columns and labels:
[1] = tested on: oral cavity and tongue; assay: Taste and irritation test by subjects (self-made sample vs reference sample); assay type: in vivo, human
Description: In the examples, the taste masking effects of test samples were evaluated by the subject's perception of the bitterness and irritation of the oral cavity and tongue. The Taste and Irritation Classification Tested by the Subjects: [table]

[2] = Solubility in sodium acetate medium pH 6.8 simulating the oral environment (USP method); assay type: physicochemical; settings: sodium acetate medium, pH 6.8, aqueous buffer, sodium acetate medium pH 6.8, USP method; read-out: Solubility
[3] = tested on: tongue; assay: Comparative Example 2: comparison of taste of solid dispersion, hemihydrobromide powder and marketed drug product (20 subjects); assay type: in vivo, human; settings: equivalent to 10 mg vortioxetine
Description: The solid dispersion equivalent to 10 mg vortioxetine prepared in Example 9b, vortioxetine hemihydrobromide powder equivalent to 10 mg vortioxetine, and the powder compressed by vortioxetine hydrobromide marketed drug product equivalent to 10 mg of vortioxetine hydrobromide passed through 100 mesh sieve, then they were put directly in front of the upper part of the tongue for one minute. There were 20 subjects in each powder group. After trying one powder taste, rinsed your mouth, and try another powder after there was no irritation. After trying the taste, record the bitterness level and tongue irritation, spit it out a few seconds later, rinse your mouth, record the time for the irritation to subside, eat 1-1.5 hours later, and record the irritation again.

[4] = average of 5 subjects, powder equivalent to 20 mg of vortioxetine

## Cc1ccc(Sc2ccccc2N2CCNCC2)c(C)c1 [vortioxetine hydrobromide, 1-[2-(2,4-dimethyl-phenylsulfanyl)-phenyl]piperazine hydrobromide]
[1]; Subject 1, 0-1 minute, powder equivalent to 20 mg of vortioxetine tasted, listed as Reference sample (2b), hydrobromide
  Instantaneous irritation: +++ (+ + + Strong irritation, intolerable)
[1]; Subject 1, powder equivalent to 20 mg of vortioxetine tasted, listed as Reference sample (2b), hydrobromide
  Delayed irritation: >30 min
[1]; Subject 1, powder equivalent to 20 mg of vortioxetine tasted, listed as Reference sample (4b), hydrobromide
  Delayed irritation: >30 min
[1]; Subject 1, powder equivalent to 20 mg of vortioxetine tasted, listed as Reference sample (4c), hydrobromide
  Delayed irritation: >30 min
[1]; Subject 1, powder equivalent to 20 mg of vortioxetine tasted, listed as Reference sample (7b), hydrobromide
  Delayed irritation: >30 min
[1]; Subject 2, 0-1 minute, powder equivalent to 20 mg of vortioxetine tasted, listed as Reference sample (2b), hydrobromide
  Instantaneous irritation: ++ (+ + Irritating, tolerable)
[1]; Subject 2, powder equivalent to 20 mg of vortioxetine tasted, listed as Reference sample (2b), hydrobromide
  Delayed irritation: >30 min
[1]; Subject 2, powder equivalent to 20 mg of vortioxetine tasted, listed as Reference sample (4b), hydrobromide
  Delayed irritation: >30 min
[1]; Subject 2, powder equivalent to 20 mg of vortioxetine tasted, listed as Reference sample (4c), hydrobromide
  Delayed irritation: >30 min
[1]; Subject 2, powder equivalent to 20 mg of vortioxetine tasted, listed as Reference sample (7b), hydrobromide
  Delayed irritation: >30 min
[1]; Subject 3, 0-1 minute, powder equivalent to 20 mg of vortioxetine tasted, listed as Reference sample (2b), hydrobromide
  Instantaneous irritation: +++ (+ + + Strong irritation, intolerable)
[1]; Subject 3, powder equivalent to 20 mg of vortioxetine tasted, listed as Reference sample (2b), hydrobromide
  Delayed irritation: >30 min
[1]; Subject 3, powder equivalent to 20 mg of vortioxetine tasted, listed as Reference sample (4b), hydrobromide
  Delayed irritation: >30 min
[1]; Subject 3, powder equivalent to 20 mg of vortioxetine tasted, listed as Reference sample (4c), hydrobromide
  Delayed irritation: >30 min
[1]; Subject 3, powder equivalent to 20 mg of vortioxetine tasted, listed as Reference sample (7b), hydrobromide
  Delayed irritation: >30 min
[1]; Subject 4, 0-1 minute, powder equivalent to 20 mg of vortioxetine tasted, listed as Reference sample (2b), hydrobromide
  Instantaneous irritation: ++ (+ + Irritating, tolerable)
[1]; Subject 4, 0-1 minute, powder equivalent to 20 mg of vortioxetine tasted, listed as Reference sample (4b), hydrobromide
  Instantaneous irritation: +++ (+ + + Strong irritation, intolerable)
[1]; Subject 4, powder equivalent to 20 mg of vortioxetine tasted, listed as Reference sample (2b), hydrobromide
  Delayed irritation: >30 min
[1]; Subject 4, powder equivalent to 20 mg of vortioxetine tasted, listed as Reference sample (4b), hydrobromide
  Delayed irritation: >30 min
[1]; Subject 4, powder equivalent to 20 mg of vortioxetine tasted, listed as Reference sample (4c), hydrobromide
  Delayed irritation: >30 min
[1]; Subject 4, powder equivalent to 20 mg of vortioxetine tasted, listed as Reference sample (7b), hydrobromide
  Delayed irritation: >30 min
[1]; Subject 5, 0-1 minute, powder equivalent to 20 mg of vortioxetine tasted, listed as Reference sample (2b), hydrobromide
  Instantaneous irritation: +++ (+ + + Strong irritation, intolerable)
[1]; Subject 5, 0-1 minute, powder equivalent to 20 mg of vortioxetine tasted, listed as Reference sample (4b), hydrobromide
  Instantaneous irritation: +++ (+ + + Strong irritation, intolerable)
[1]; Subject 5, powder equivalent to 20 mg of vortioxetine tasted, listed as Reference sample (2b), hydrobromide
  Delayed irritation: >30 min
[1]; Subject 5, powder equivalent to 20 mg of vortioxetine tasted, listed as Reference sample (4b), hydrobromide
  Delayed irritation: >30 min
[1]; Subject 5, powder equivalent to 20 mg of vortioxetine tasted, listed as Reference sample (4c), hydrobromide
  Delayed irritation: >30 min
[1]; Subject 5, powder equivalent to 20 mg of vortioxetine tasted, listed as Reference sample (7b), hydrobromide
  Delayed irritation: >30 min
[1]; average of 5 subjects, powder equivalent to 20 mg of vortioxetine, listed as Reference sample (2b), hydrobromide
  Instantaneous irritation: +++ (+ + + Strong irritation, intolerable)
[1]; average of 5 subjects, powder equivalent to 20 mg of vortioxetine, listed as Reference sample (4b), hydrobromide
  Instantaneous irritation: +++ (+ + + Strong irritation, intolerable)
[1]; average of 5 subjects, powder equivalent to 20 mg of vortioxetine, listed as Reference sample (4c), hydrobromide
  Instantaneous irritation: +++ (+ + + Strong irritation, intolerable)
[1]; average of 5 subjects, powder equivalent to 20 mg of vortioxetine, listed as Reference sample (7b), hydrobromide
  Instantaneous irritation: +++ (+ + + Strong irritation, intolerable)
[1]; average of 5 subjects, powder equivalent to 20 mg of vortioxetine, listed as Reference sample (9b), hydrobromide
  Instantaneous irritation: +++ (+ + + Strong irritation, intolerable)
[1]; average of 5 subjects, powder equivalent to 20 mg of vortioxetine, listed as Reference sample (10), hydrobromide
  Instantaneous irritation: ++ (+ + Irritating, tolerable)
[1]; average of 5 subjects, powder equivalent to 20 mg of vortioxetine, listed as Reference sample (11b), hydrobromide
  Instantaneous irritation: +++ (+ + + Strong irritation, intolerable)
[1]; average of 5 subjects, powder equivalent to 20 mg of vortioxetine, listed as Reference sample (11c), hydrobromide
  Instantaneous irritation: +++ (+ + + Strong irritation, intolerable)
[1]; average of 5 subjects, powder equivalent to 20 mg of vortioxetine, listed as Reference sample (14b), hydrobromide
  Instantaneous irritation: +++ (+ + + Strong irritation, intolerable)
[2]
  solubility: 150 µg/mL

## Br.Cc1ccc(Sc2ccccc2N2CCNCC2)c(C)c1.Cc1ccc(Sc2ccccc2N2CCNCC2)c(C)c1 [vortioxetine hemihydrobromide]
[1]; [4]
  Delayed irritation, time to disappear: more than 30 minutes
  Instantaneous irritation: ++ (+ + Irritating, tolerable)

## Br.Cc1ccc(Sc2ccccc2N2CCNCC2)c(C)c1 [Reference sample (1b), vortioxetine hydrobromide form α]
[1]; Subject 1, 0-1 minute, powder equivalent to 20 mg of vortioxetine tasted
  Instantaneous irritation: +++ (+ + + Strong irritation, intolerable)
[1]; Subject 1, powder equivalent to 20 mg of vortioxetine tasted
  Delayed irritation: >30 min
[1]; Subject 2, 0-1 minute, powder equivalent to 20 mg of vortioxetine tasted
  Instantaneous irritation: +++ (+ + + Strong irritation, intolerable)
[1]; Subject 2, powder equivalent to 20 mg of vortioxetine tasted
  Delayed irritation: >30 min
[1]; Subject 3, 0-1 minute, powder equivalent to 20 mg of vortioxetine tasted
  Instantaneous irritation: +++ (+ + + Strong irritation, intolerable)
[1]; Subject 3, powder equivalent to 20 mg of vortioxetine tasted
  Delayed irritation: >30 min
[1]; Subject 4, 0-1 minute, powder equivalent to 20 mg of vortioxetine tasted
  Instantaneous irritation: +++ (+ + + Strong irritation, intolerable)
[1]; Subject 4, powder equivalent to 20 mg of vortioxetine tasted
  Delayed irritation: >30 min
[1]; Subject 5, 0-1 minute, powder equivalent to 20 mg of vortioxetine tasted
  Instantaneous irritation: +++ (+ + + Strong irritation, intolerable)
[1]; Subject 5, powder equivalent to 20 mg of vortioxetine tasted
  Delayed irritation: >30 min
[1]; [4]
  Delayed irritation, time to disappear: more than 30 minutes
  Instantaneous irritation: +++ (+ + + Strong irritation, intolerable)

## Br.Cc1ccc(Sc2ccccc2N2CCNCC2)c(C)c1.Cc1ccc(Sc2ccccc2N2CCNCC2)c(C)c1 [Vortioxetine hemihydrobromide powder]
[3]
  Number of subjects experiencing different irritation: Basically no irritation: 6
[3]; no irritation after gargling
  Number of subjects experiencing different irritation: Slightly irritating, tolerable: 12^(2)
[3]; subside time more than 2 hours, not subsided after eating
  Number of subjects experiencing different irritation: unbearable: 2^(1)
